Results on one substance are retold here after patent US12239713B2, “Degradable polyethylene glycol conjugate” (NOF CORPORATION, priority 2018, dated 2025).

Where no end group is shown, it is not given here.

This assay has as its system blood calcium concentration. Description: Evaluation of physiological activity of PEGylated salmon calcitonin (blood calcium concentration). In kind it is in vivo, Mouse Balb/c. Particulars: sCT dose 40 μg/kg, blood at 1, 3, 6, 24 hr, compared to saline (PBS) group, FIG. 10. The procedure: The method for evaluating the physiological activity of a bio-related substance bonded to a degradable polyethylene glycol derivative is not particular limited. For example, when the bio-related substance is insulin, blood sugar concentration is measured, and when it is calcitonin, blood calcium concentration is measured, by periodically collecting blood from the animal that received administration and measuring the substance in the blood by using an appropriate analytical instrument, and the like, based on which the evaluation can be performed. Specifically, in the case of insulin, a glucose measurement kit is used to monitor a decrease in glucose concentration after administration and, in the case of calcitonin, a decrease in calcium concentration after administration is monitored using a calcium measurement kit, based on which the evaluation can be performed.
The physiological activities of 4 groups of ME-200GLFG (SEQ ID NO: 4) (L)-200-sCT which is SCT to which degradable polyethylene glycol derivative with a molecular weight of 40,000 is bonded and obtained in Example 16, methoxy PEG 40 kDa-sCT bonded to nondegradable methoxy PEG 40 kDa, unmodified sCT, and saline were comparatively evaluated in animal experiments. […]

For the substance “salmon calcitonin (CSNLSTCVLGKLSQELHKLQTYPRTNTGSGTP; ends and bridges not checked; cysteine pairing not given here) [Unmodified sCT]”, the “calcium concentration in blood (in words)” value is given as “showed an increase in calcium concentration 6 hr after administration”.
